One may read the melting point as the temperature, or range, at which the solid turns liquid.

In the case of `C#CCN(c1ccc(C(=O)O)cc1)C1CCc2cc3nc(C)[nH]c(=O)c3cc21` (racemic) [Example 1, 4{N-[(6RS)-2-Methyl-4-oxo-3,4,7,8-tetrahydro-6H-cyclopenta[g]quinazolin-6-yl]-N-(prop-2-ynyl)amino}benzoic acid], the melting point was 305 to 307 °C.

The compound `C#CCN(c1ccc(C(=O)N[C@@H](CCC(=O)N[C@H](CCC(=O)O)C(=O)O)C(=O)O)cc1)C1CCc2cc3nc(COC)[nH]c(=O)c3cc21` (mixture of isomers) [Example 2, N-{N-{4-[N-((6RS)-2-Methoxymethyl4oxo-3,4,7,8-tetrahydro-6H-cyclopent[g]quinazolin-6-yl)-N-(prop-2-ynyl)amino]-benzoyl}-L-γ-glutamyl}-D-glutamic acid] yielded a melting point of 150 to 155 °C.

As to `C#CCN(c1ccc(C(=O)N[C@@H](CCC(=O)N[C@H](CCC(=O)O)C(=O)O)C(=O)O)c(F)c1)C1CCc2cc3nc(C)[nH]c(=O)c3cc21` (mixture of isomers) [Example 4, N-{N-{4[N-((6RS)-2-methyl-4-oxo-3,4,7,8-tetra-hydro-6H-cyclopental[g]quinazolin-6-yl)-N-(prop2-ynyl)amino]-2-fluoro-benzoyl}-L-γ-glutamyl}-D-glutamic acid], the melting point is 175 °C (dec.).

On to `C#CCN(c1ccc(C(=O)N[C@@H](CCC(=O)N(C)[C@@H](CCC(=O)O)C(=O)O)C(=O)O)cc1)C1CCc2cc3nc(CO)[nH]c(=O)c3cc21` (mixture of isomers) [Example 5, N-{N-{4-[N-((6RS)-2-hydroxymethyl-4-oxo-3,4,7,8-tetrahydro-6H-cyclopenta[g]quinazolin-6yl)-N-(prop-2-ynyl)amino]-benzoyl}-L-γ-glutamyl}-N-methyl-L-glutamic acid], for which the melting point was > 165 °C (dec.).

The values above are taken from patent US7250511B2, “Process for the preparation of cyclopenta[g]quinazoline derivatives” (BTG International Limited, priority 2001, dated 2007).
